Results published in patent US20180147134A1, “ANTI-CELL SENESCENCE COSMETIC COMPOSITION, USE OF CASEARIA SYLVESTRIS AND/OR HIMENAEA COURBARIL, METHOD OF PREVENTING CELL SENESCENCE AND A METHOD FOR MODULATING THE EXPRESSION OF B-GALACTOSIDASE, P16, P21 AND/OR IL-8” (Natura Cosméticos S.A., priority 2016, published 2018).

Legend:
Format in all cases: cell-based
[1] = system: inflammatory cytokine IL-8; assay: in vitro model of induced cell senescence: expression of IL-8; settings: UVA + agent
From the text: (§1) An in vitro model of induced early cell aging (cell senescence) was developed and used to evaluate whether certain cosmetic ingredients can protect or delay molecular mechanisms that lead to aging of skin cells or to loss of functional competence (loss of cellular vitality).

[2] = system: cell senescence-associated lysosomal b-galactosidase; assay: in vitro model of induced early cell aging (cell senescence), UVA/UVB: senescence-associated lysosomal b-galactosidase (flow cytometry and cytochemical marking); settings: in the presence of agent
From the text: as §1

[3] = system: transcription factor p16; assay: in vitro model of induced cell senescence: expression of p16; settings: protection of the cells with agent
From the text: as §1

[4] = system: transcription factor p21; assay: in vitro model of induced cell senescence: expression of p21; settings: protection of the cells with agent
From the text: as §1

Row | Structure (SMILES) | expression of IL-8 [1] | appearance of b-galactosidase marking induced by UV [2] | induced expression of p16 [3] | induced expression of p21 [4]
1 | O=C(O)/C=C/c1ccc(O)c(O)c1 [caffeic acid] | reduced | reduced | reduces | 
2 | Cc1c(C)c2c(c(C)c1O)CCC(C)(C(=O)O)O2 (stereo not shown) [trolox] | reduced | reduced | reduces | reduces
